Some results are limits rather than exact numbers.

The term IC50 denotes the point on the concentration scale where inhibition reaches its midpoint. Lower therefore signals higher potency.

In experiment [1] the target is Brg1 ATPase-SnAC (658-1361) (Homo sapiens (Human), UniProt P51532). As to the kind of experiment: BRG1 ATPase Inhibition Assay (ADP-Glo). Format: biochemical. As to conditions: 5 nM Brg1 ATPase-SnAC, 65 μM ATP, 2 nM pCMV-dR8.91 plasmid, 60 min RT. The procedure: BRG1 ATPase Inhibition Assay
Chain of Brg1 ATPase-SnAC (658-1361) (P51532 other isoform, or with tags, fused parts or gaps): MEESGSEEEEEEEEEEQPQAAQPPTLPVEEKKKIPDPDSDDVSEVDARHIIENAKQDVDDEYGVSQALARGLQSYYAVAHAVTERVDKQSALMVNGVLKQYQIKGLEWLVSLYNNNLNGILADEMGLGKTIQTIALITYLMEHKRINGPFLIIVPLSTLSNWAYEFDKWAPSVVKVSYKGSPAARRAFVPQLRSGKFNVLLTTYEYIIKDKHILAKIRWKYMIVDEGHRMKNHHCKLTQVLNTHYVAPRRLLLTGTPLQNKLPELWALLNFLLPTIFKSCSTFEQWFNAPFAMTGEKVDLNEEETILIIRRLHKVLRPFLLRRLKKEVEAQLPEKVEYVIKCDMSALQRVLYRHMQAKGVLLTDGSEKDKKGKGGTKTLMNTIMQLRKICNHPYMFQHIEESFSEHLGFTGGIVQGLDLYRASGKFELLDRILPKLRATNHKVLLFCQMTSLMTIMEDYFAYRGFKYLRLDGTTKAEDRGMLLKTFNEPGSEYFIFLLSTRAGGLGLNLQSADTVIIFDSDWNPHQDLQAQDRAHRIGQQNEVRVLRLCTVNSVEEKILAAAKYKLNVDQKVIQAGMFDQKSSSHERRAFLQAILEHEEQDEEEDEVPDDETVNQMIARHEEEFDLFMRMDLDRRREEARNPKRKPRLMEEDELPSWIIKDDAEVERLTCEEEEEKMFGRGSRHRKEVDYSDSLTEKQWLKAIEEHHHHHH
BRG1 ATPase Inhibition Activity
(§1) Compound inhibition of ATPase activity of Brg1 ATPase-SnAC (658-1361) was measured by using the ADP-Glo assay kit from Promega (V6930). 120 nL of compound in 100% DMSO were transferred to a white 384 well microtiter assay plate using an ATS Acoustic Transfer System from EDC Biosystems. All subsequent reagent additions were performed using a MultiFlo FX Multi-Mode Dispenser. Assay buffer was 20 mM HEPES pH 7.5, 1 mM MgCl2, 20 mM KCl, 1 mM DTT, 0.01% BSA, 0.005% Tween 20. 4 μL of 7.5 nM Brg1 ATPase-SnAC in assay buffer was added to the assay plate and incubated at RT for 5 min with compound. 2 μL of 195 μM ATP and 6 nM pCMV-dR8.91 plasmid in assay buffer was added to assay plate to initiate the reaction. The final concentrations of reagents were 5 nM Brg1 ATPase-SnAC, 65 μM ATP, and 2 nM pCMV-dR8.91 plasmid. The ATPase reaction was incubated at RT for 60 min. 3 μL of ADP-Glo reagent was added to stop the reaction and was incubated for 30 min at RT. 3 μL of Kinase detection reagent was added to the assay plate which was incubated for 90 min at RT. Plates were read with a 2103 Multilabel Envision reader using ultrasensitive luminescence detection. IC50 values were determined from the average of duplicate data points by non-linear regression analysis of percent inhibition values plotted versus compound concentration.
(§2) pCMV-dR8.91 Plasmid Used for BRM/BRG1 ATPase Inhibition Assays:
(§3) The plasmid template pCMV-dR8.91 (see sequence below) is propagated using One Shot Stbl3 Chemically Competent E. coli (Catalog Number C73C7303, Invitrogen/Thermo Fisher Scientific) following the transformation protocol provided with the reagent. Transformed bacterial colonies are then selected on LB agar plates containing ampicillin/carbenicllin antibiotic selection medium (Catalog Number L1010, Teknova). Bacterial colonies are grown in LB liquid broth (Catalog number 10855001, Invitrogen) containing ampicillin at 100 micrograms/mL and plasmid DNA isolated according to required scale according to the manufacturers protocol provided with the Qiagen Plasmid Isolation Kits (Maxi prep, Product Id Number 10063).

In experiment [2] the target is Brm ATPase-SnAC (636-1331) (Homo sapiens, UniProt P51531). Kind of experiment: BRM ATPase Inhibition Assay (ADP-Glo). Format: biochemical. To be noted: 5 nM BRM ATPase-SnAC, 85 μM ATP, 2 nM pCMV-dR8.91 plasmid, 60 min RT. Here is the method:
BRM ATPase Inhibition Assay
as §1, with “activity of Brm ATPase-SnAC (636-1331)” for “activity of Brg1 ATPase-SnAC (658-1361)”, “Brm ATPase-SnAC (636-1331) was measured” for “Brg1 ATPase-SnAC (658-1361) was measured”, “7.5 nM Brm ATPase-SnAC in” for “7.5 nM Brg1 ATPase-SnAC in”, “μL of 255 μM ATP” for “μL of 195 μM ATP”, “5 nM BRM ATPase-SnAC, 85” for “5 nM Brg1 ATPase-SnAC, 65”, “BRM ATPase-SnAC, 85 μM ATP,” for “Brg1 ATPase-SnAC, 65 μM ATP,”
as §2, §3
In general terms: ADP-Glo first removes unused ATP, then detects ADP through luciferase.

Chain of Brm ATPase-SnAC (636-1331) (P51531 whole entry, looked up): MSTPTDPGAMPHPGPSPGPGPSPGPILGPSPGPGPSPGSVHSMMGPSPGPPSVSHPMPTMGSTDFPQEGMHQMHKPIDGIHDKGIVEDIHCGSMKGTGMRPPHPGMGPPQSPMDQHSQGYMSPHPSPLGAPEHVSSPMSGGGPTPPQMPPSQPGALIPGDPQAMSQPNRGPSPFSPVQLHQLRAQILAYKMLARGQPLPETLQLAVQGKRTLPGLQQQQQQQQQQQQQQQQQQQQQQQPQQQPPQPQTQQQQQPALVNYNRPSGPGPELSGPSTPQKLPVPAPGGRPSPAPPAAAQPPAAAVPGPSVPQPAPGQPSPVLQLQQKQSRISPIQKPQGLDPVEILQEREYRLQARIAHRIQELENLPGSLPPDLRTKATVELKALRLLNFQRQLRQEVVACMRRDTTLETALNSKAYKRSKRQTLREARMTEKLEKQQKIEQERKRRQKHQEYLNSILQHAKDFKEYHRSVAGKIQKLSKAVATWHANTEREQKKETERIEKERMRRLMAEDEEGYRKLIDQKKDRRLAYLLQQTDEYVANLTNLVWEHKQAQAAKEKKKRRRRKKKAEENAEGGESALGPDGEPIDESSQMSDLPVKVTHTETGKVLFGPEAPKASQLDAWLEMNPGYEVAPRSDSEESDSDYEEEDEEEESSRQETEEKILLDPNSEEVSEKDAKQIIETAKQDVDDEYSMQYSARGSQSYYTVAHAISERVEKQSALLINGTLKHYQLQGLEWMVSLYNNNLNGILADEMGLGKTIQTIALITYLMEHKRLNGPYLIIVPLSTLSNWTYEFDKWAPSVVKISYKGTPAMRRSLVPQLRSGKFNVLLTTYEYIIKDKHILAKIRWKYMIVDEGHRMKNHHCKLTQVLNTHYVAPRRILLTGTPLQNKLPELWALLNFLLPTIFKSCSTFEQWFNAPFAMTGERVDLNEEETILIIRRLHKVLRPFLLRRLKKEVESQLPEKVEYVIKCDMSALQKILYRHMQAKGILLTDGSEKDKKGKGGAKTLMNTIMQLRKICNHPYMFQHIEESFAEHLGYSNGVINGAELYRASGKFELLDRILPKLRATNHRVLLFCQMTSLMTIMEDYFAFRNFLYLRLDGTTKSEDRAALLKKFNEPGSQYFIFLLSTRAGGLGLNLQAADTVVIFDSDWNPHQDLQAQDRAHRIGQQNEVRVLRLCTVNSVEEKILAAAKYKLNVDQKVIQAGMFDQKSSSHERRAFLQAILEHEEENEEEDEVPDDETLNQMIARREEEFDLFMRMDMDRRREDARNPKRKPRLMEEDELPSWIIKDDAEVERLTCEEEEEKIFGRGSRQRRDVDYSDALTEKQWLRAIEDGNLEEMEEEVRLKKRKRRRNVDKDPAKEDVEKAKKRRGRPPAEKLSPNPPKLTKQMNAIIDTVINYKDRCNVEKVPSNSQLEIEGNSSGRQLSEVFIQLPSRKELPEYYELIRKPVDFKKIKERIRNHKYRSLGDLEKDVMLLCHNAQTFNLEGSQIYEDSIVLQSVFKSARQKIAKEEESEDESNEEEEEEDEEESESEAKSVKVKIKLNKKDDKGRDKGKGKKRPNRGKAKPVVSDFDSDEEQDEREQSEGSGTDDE

With `O=C(Nc1ccnc(Cl)c1)Nc1cc(C(F)F)ns1` [Example 1, 1-(2-chloropyridin-4-yl)-3-(3-(difluoromethyl)isothiazol-5-yl)urea], the results for the IC50 in experiment [1] and in experiment [2] were 6 nM and 5 nM, respectively.

On to `Nc1cnc(Cl)cc1NC(=O)Nc1cc(C(F)F)ns1` [Example 4, 1-(5-amino-2-chloropyridin-4-yl)-3-(3-(difluoromethyl)isothiazol-5-yl)urea], for which the IC50 in experiment [1] and in experiment [2] was under 5 nM each time.

Turning to `O=C(Nc1cc(C(F)F)ns1)Nc1cc(F)ncc1CO` [Example 7, 1-(3-(difluoromethyl)isothiazol-5-yl)-3-(2-fluoro-5-(hydroxymethyl)pyridin-4-yl)urea], the IC50 in experiment [1] and in experiment [2] was under 5 nM throughout.

Regarding `O=C(Nc1cc(C(F)F)ns1)Nc1ccnc(F)c1CO` [Example 8, 1-(3-(difluoromethyl)isothiazol-5-yl)-3-(2-fluoro-3-(hydroxymethyl)pyridin-4-yl)urea], the IC50 in experiment [1] worked out at 19 nM; in experiment [2], 90 nM.

On to `Cc1cc(NC(=O)Nc2ccnc(Cl)c2)sn1` [Example 2, 1-(2-chloropyridin-4-yl)-3-(3-methylisothiazol-5-yl)urea], for which the figures for the IC50 in experiment [1] and in experiment [2] were 30 nM and 33 nM, respectively.

Consider `Nc1cnc(F)cc1NC(=O)Nc1cc(C(F)F)ns1` [Example 6, 1-(5-amino-2-fluoropyridin-4-yl)-3-(3-(difluoromethyl)isothiazol-5-yl)urea], for which the IC50 in experiment [1] and in experiment [2] was under 5 nM throughout.

For `O=C(Nc1cc(C(F)F)ns1)Nc1cc(Cl)ncc1CO` [Example 5, 1-(2-chloro-5-(hydroxymethyl)pyridin-4-yl)-3-(3-(difluoromethyl)isothiazol-5-yl)urea], the IC50 in experiment [1] and in experiment [2] was under 5 nM throughout.

Source of the values: patent publication US11958846B2, “Urea compounds and compositions as SMARCA2/BRM ATPase inhibitors” (Novartis AG, priority 2018, dated 2024).
